Results reported in ChEMBL document CHEMBL4837240 (J Med Chem, 2021).
Active and inactive are the calls of the source. The rule behind the calls is not given here.

Columns and labels:
MDA-MB-231 [1] = assay: Antimigratory activity against human MDA-MB-231 cells assessed as reduction in cell migration incubated for 12 hrs by transwell assay; format: functional, cell-based
MDA-MB-436 [2] = assay: Induction of apoptosis in human MDA-MB-436 cells assessed as apoptotic cells at 2.5 uM incubated for 48 hrs by flow cytometry; format: functional
MDA-MB-231 [3] = assay: Antimigratory activity against human MDA-MB-231 cells assessed as suppression of migration measured after 24 hrs by Wound healing assay; format: functional, cell-based
[4] = biological target: T1, Vascular endothelial growth factor receptor 3 (Homo sapiens, UniProt P35916); assay: Inhibition of VEGFR3 phosphorylation in human dermal lymphatic endothelial cells incubated for 24 hrs by Western blot analysis; format: tissue-based; conditions: HDLEC
T1 sequence (P35916 whole entry): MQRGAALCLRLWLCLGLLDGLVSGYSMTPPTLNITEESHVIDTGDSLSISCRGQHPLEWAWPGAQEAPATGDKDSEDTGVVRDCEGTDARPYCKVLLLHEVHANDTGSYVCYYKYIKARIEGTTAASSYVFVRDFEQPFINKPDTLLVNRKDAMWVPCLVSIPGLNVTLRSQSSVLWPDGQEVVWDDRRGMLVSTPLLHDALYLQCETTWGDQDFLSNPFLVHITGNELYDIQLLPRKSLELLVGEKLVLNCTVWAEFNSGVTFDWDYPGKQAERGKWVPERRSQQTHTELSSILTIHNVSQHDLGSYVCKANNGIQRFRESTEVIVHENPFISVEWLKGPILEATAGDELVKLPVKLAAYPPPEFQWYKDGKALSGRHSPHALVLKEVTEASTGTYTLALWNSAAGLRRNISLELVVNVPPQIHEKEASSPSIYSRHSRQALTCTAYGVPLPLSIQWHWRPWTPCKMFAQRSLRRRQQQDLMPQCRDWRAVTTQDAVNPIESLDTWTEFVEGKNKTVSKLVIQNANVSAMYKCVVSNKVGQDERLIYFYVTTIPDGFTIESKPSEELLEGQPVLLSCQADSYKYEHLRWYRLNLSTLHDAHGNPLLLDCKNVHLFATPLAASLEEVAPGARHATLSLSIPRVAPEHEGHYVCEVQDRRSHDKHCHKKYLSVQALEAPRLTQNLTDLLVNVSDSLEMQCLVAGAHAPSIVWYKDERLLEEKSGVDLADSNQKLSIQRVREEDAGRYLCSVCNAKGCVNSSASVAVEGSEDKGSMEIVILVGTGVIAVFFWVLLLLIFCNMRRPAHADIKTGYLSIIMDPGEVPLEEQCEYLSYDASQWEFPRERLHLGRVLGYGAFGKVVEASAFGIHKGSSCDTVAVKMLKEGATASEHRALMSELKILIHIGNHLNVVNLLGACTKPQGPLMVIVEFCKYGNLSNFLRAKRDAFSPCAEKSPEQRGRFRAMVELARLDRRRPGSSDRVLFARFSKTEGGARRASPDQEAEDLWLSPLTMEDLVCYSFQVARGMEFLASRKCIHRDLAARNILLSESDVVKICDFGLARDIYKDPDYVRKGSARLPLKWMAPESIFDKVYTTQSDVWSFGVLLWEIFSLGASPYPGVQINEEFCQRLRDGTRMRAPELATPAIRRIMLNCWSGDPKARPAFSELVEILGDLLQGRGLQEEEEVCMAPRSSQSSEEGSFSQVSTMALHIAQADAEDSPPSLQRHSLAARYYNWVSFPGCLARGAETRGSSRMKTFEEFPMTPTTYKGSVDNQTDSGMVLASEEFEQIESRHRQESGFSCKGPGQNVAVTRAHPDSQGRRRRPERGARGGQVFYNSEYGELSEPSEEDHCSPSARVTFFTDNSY

[5] = AUC (0 to infinity) in Sprague-Dawley rat at 10 mg/kg, po by LC-MS analysis; format: ADME, organism-based; parameters: route oral, time infinity, dose 10 mg/kg; conditions: in vivo
[6] = biological target: Tyrosine-protein kinase BTK (Homo sapiens, UniProt Q06187); assay: Inhibition of human BTK
Sequence of Tyrosine-protein kinase BTK (Q06187 whole entry): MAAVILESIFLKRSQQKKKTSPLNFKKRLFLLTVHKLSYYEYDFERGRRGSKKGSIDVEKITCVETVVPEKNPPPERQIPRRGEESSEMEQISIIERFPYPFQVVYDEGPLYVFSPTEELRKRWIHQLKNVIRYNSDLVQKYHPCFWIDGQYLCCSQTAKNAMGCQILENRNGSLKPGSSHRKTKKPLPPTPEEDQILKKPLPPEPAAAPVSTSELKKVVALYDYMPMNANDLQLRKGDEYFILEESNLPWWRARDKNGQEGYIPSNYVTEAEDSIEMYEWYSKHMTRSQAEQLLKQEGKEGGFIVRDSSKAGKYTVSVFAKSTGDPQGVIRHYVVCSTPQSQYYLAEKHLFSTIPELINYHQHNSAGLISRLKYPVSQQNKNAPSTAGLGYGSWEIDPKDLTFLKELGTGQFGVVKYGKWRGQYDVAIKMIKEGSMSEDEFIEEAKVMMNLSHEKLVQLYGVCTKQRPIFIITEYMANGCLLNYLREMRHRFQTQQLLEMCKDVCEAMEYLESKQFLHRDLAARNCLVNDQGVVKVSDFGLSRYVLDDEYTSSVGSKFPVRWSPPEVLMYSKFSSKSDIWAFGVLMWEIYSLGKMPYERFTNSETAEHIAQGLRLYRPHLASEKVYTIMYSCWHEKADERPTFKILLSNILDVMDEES

[7] = Antitumor activity against human MDA-MB-231 cells xenografted in BALB/c mouse assessed as tumor growth inhibition at 50 mg/kg, po relative to control; format: functional; conditions: read-out: TGI
[8] = biological target: T1, Vascular endothelial growth factor receptor 3; assay: Inhibition of VEGFR3 in human dermal lymphatic endothelial cells assessed as inhibition of ERK1/2 phosphorylation incubated for 24 hrs by Western blot analysis; conditions: HDLEC
MDA-MB-231 [9] = assay: Induction of apoptosis in human MDA-MB-231 cells assessed as apoptotic cells at 2.5 to 5 uM incubated for 48 hrs by flow cytometry (reference value: 7.2%); format: functional; conditions: dose 2.5-5 µM
[10] = Toxicity in BALB/c mouse xenografted with MDA-MB-231 cells assessed as AST level in blood at 300 mg/kg, po; format: organism-based; conditions: in vivo
[11] = Toxicity in BALB/c mouse xenografted with MDA-MB-231 cells assessed as LDH level in blood at 300 mg/kg, po; format: organism-based; conditions: in vivo
[12] = biological target: T1, Vascular endothelial growth factor receptor 3; assay: Inhibition of VEGFR3 in human MDA-MB-436 cells assessed as inhibition of AKT phosphorylation at 2.5 uM incubated for 24 hrs by Western blot analysis; format: cell-based
[13] = biological target: T1, Vascular endothelial growth factor receptor 3; assay: Inhibition of VEGFR3 in human MDA-MB-436 cells assessed as inhibition of STAT5 phosphorylation at 2.5 uM incubated for 24 hrs by Western blot analysis; format: cell-based
[14] = Half life in Sprague-Dawley rat at 1 mg/kg, iv by LC-MS analysis; format: ADME, organism-based; conditions: in vivo
MDA-MB-436 [15] = assay: Inhibition of colony formation in human MDA-MB-436 cells at 2.5 uM incubated for 24 hrs by clonogenic assay; format: functional
[16] = biological target: T1, Vascular endothelial growth factor receptor 3; assay: Inhibition of VEGFR3 in human MDA-MB-231 cells assessed as inhibition of STAT5 phosphorylation at 2.5 uM incubated for 24 hrs by Western blot analysis; format: cell-based
[17] = AUC (0 to infinity) in Sprague-Dawley rat at 1 mg/kg, iv by LC-MS analysis; format: ADME, organism-based; parameters: time infinity, route intravenous, dose 1 mg/kg; conditions: in vivo
[18] = Half life in Sprague-Dawley rat at 10 mg/kg, po by LC-MS analysis; format: ADME, organism-based; conditions: in vivo
[19] = Toxicity in BALB/c mouse xenografted with MDA-MB-231 cells assessed as creatinine level in blood at 300 mg/kg, po; format: organism-based; conditions: in vivo
MDA-MB-231 [20] = assay: Anticancer activity against human MDA-MB-231 cells assessed as cell viability incubated for 48 hrs by MTT assay; conditions: MDA-MB-231, 48 h
Mus musculus [21] = assay: Downregulation of MMP2 protein expression human MDA-MB-231 cells injected into vein of BALB/c mouse lung metastatic model at 50 mg/kg, po once a day measured on day 21 by […]; format: functional, organism-based
[22] = AUC (0 to t) in Sprague-Dawley rat at 1 mg/kg, iv by LC-MS analysis; format: ADME, organism-based; parameters: dose 1 mg/kg; conditions: in vivo
MDA-MB-436 [23] = assay: Induction of apoptosis in human MDA-MB-436 cells assessed as apoptotic cells at 5 uM incubated for 48 hrs by flow cytometry; format: functional
Mus musculus [24] = assay: Decrease in E-cadherin level in BALB/c mouse xenografted with MDA-MB-231 cells in tumor tissue at 25 mg/kg, po by immunohistochemistry analysis; format: functional, organism-based
MDA-MB-231 [25] = assay: Induction of apoptosis in human MDA-MB-231 cells assessed as cleaved caspase 3 up to 10 uM incubated for 24 hrs by Western blotting analysis; format: functional, cell-based; conditions: dose microM <=10, time 24.0 hrs
Mus musculus [26] = assay: Decrease in MMP-2 level in BALB/c mouse xenografted with MDA-MB-231 cells in tumor tissue at 25 mg/kg, po by immunohistochemistry analysis; format: functional, organism-based
MDA-MB-436 [27] = assay: Anticancer activity against human MDA-MB-436 cells assessed as cell viability incubated for 48 hrs by MTT assay; conditions: MDA-MB-436, 48 h
MDA-MB-436 [28] = assay: Induction of apoptosis in human MDA-MB-436 cells assessed as upregulation of caspase 3 up to 10 uM incubated for 24 hrs by Western blotting analysis; format: functional, cell-based; conditions: dose microM <=10, time 24.0 hrs
[29] = Toxicity in BALB/c mouse xenografted with MDA-MB-231 cells assessed as effect on body weight at 50 mg/kg, po; format: organism-based; conditions: in vivo
MDA-MB-231 [30] = assay: Induction of apoptosis in human MDA-MB-231 cells assessed as accumulation at G1 phase incubated for 48 hrs by flow cytometry; format: functional, cell-based
[31] = biological target: Vascular endothelial growth factor receptor 2 (Homo sapiens, UniProt P35968); assay: Inhibition of human KDR/VEGFR2
Sequence of Vascular endothelial growth factor receptor 2 (P35968 whole entry): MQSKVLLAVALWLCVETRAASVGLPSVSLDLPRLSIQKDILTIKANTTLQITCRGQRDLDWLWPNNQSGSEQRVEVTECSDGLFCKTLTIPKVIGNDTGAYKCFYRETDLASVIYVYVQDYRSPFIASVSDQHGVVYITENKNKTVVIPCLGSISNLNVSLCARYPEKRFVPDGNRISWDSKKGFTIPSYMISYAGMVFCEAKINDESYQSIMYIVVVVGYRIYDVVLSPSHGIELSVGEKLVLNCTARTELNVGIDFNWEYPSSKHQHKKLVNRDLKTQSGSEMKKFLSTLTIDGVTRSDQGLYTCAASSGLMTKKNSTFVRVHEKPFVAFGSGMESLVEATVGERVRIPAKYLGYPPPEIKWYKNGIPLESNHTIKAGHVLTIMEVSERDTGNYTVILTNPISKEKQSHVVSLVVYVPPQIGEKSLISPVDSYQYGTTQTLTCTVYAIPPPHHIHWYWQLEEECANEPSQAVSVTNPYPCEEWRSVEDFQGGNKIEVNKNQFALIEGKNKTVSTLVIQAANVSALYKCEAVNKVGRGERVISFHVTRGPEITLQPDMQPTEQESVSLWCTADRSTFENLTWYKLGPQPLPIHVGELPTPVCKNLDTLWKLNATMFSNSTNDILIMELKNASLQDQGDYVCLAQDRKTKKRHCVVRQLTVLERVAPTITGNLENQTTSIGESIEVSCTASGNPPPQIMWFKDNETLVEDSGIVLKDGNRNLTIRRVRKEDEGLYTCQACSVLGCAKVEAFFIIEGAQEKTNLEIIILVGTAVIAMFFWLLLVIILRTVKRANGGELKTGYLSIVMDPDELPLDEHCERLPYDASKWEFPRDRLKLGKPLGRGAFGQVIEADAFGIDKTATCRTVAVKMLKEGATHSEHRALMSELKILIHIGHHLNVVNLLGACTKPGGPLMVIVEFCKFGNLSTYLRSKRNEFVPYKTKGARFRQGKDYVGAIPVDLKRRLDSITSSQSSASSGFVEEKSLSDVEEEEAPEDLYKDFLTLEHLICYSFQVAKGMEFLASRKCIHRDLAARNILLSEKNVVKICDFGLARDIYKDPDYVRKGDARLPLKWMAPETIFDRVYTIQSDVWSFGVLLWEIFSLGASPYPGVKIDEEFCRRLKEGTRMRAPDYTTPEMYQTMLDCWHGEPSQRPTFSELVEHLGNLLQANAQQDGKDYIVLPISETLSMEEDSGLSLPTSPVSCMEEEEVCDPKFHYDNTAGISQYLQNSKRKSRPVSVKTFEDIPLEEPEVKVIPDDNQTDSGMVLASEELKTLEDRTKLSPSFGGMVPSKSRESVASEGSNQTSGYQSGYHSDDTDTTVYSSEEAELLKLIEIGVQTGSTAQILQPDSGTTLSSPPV

[32] = biological target: Vascular endothelial growth factor receptor 3 (Mus musculus) (UniProt P35917); assay: In vivo inhibition of VEGFR3 phosphorylation in BALB/c mouse xenografted with MDA-MB-231 cells assessed as decrease in ERK1/2 phosphorylation at 25 mg/kg, po by immunohistochemistry analysis; format: functional, organism-based
MDA-MB-231 [33] = assay: Upregulation of E-cadherin protein expression in human MDA-MB-231 cells up to 10 uM incubated for 24 hrs by Western blot analysis; format: functional, cell-based; conditions: dose microM <=10, time 24.0 hrs
[34] = Antiproliferative activity against VEGF-C-induced human dermal lymphatic endothelial cells assessed as cell viability incubated for 48 hrs by CCK-8 assay; format: functional, tissue-based; conditions: HDLEC
[35] = biological target: T1, Vascular endothelial growth factor receptor 3; assay: Inhibition of VEGFR3 phosphorylation in human MDA-MB-231 cells at 2.5 uM incubated for 24 hrs by Western blot analysis; format: cell-based
HDLEC = assay: Upregulation of E-cadherin protein expression in human dermal lymphatic endothelial cells incubated for 24 hrs by Western blot analysis; format: functional
[36] = biological target: T1, Vascular endothelial growth factor receptor 3; assay: Inhibition of human FLT4/VEGFR3
MDA-MB-231 [37] = assay: Downregulation of MMP2 protein expression in human MDA-MB-231 cells up to 10 uM incubated for 24 hrs by Western blot analysis; format: functional, cell-based; conditions: dose microM <=10, time 24.0 hrs
[38] = biological target: T1, Vascular endothelial growth factor receptor 3; assay: Inhibition of VEGFR3 in human dermal lymphatic endothelial cells assessed as inhibition of STAT5 phosphorylation incubated for 24 hrs by Western blot analysis; conditions: HDLEC
[39] = biological target: T1, Vascular endothelial growth factor receptor 3; assay: Inhibition of VEGFR3 in human MDA-MB-436 cells assessed as inhibition of ERK1/2 phosphorylation at 2.5 uM incubated for 24 hrs by Western blot analysis; format: cell-based
[40] = biological target: Maternal embryonic leucine zipper kinase (Homo sapiens, UniProt Q14680); assay: Inhibition of human MELK assessed as residual kinase activity at 1 uM relative to control
Sequence of Maternal embryonic leucine zipper kinase (Q14680 whole entry, looked up): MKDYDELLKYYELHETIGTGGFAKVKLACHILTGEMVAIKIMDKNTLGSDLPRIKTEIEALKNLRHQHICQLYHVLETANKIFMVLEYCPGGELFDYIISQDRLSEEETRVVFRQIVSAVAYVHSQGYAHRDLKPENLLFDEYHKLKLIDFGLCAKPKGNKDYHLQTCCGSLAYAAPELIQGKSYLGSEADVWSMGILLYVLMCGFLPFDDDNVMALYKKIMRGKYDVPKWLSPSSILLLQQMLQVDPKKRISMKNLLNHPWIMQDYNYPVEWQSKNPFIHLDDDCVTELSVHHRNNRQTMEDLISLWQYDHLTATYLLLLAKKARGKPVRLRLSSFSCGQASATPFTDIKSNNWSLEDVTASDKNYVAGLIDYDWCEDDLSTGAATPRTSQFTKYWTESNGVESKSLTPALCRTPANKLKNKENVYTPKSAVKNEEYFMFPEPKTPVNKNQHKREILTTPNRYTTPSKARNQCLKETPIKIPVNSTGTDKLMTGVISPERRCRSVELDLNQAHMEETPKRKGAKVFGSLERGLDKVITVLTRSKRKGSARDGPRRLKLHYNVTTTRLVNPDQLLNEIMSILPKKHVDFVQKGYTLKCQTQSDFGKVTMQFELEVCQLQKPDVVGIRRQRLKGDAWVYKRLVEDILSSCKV

[41] = Cmax in Sprague-Dawley rat at 10 mg/kg, po by LC-MS analysis; format: ADME, organism-based; parameters: route oral, dose 10 mg/kg; conditions: in vivo

CN1CCN(c2ccc(-c3cc4c(N5CCN(C(=O)Nc6ccc(Cl)c(C(F)(F)F)c6)CC5)ncnc4s3)cc2)CC1
Activity (MDA-MB-231 [1]): Active | Activity (MDA-MB-436 [2]): 30.5% | Activity (MDA-MB-231 [3]): Active | inhibition [4]: Dose-Dependent Effect | AUC(0-inf) [5]: 12300 ng·h/mL | IC50 [6]: 0.718 µM | inhibition in vivo at 50 mg/kg [7]: 61.9% | inhibition [8]: Dose-Dependent Effect | Activity (MDA-MB-231 [9]): 19.7% | Activity [10]: Non-Toxic | Activity [11]: Non-Toxic | inhibition [12]: Active | inhibition [13]: Active | half-life [14]: 13.1 h | inhibition at 2.5 µM (MDA-MB-436 [15]): 100% | inhibition [16]: Active | AUC(0-inf) [17]: 3480 ng·h/mL | half-life [18]: 16 h | Activity [19]: Non-Toxic | IC50 (MDA-MB-231 [20]): 2.22 µM | Activity (Mus musculus [21]): Active | AUC(0-t) [22]: 2570 ng·h/mL | Activity (MDA-MB-436 [23]): 36.7% | Activity (Mus musculus [24]): Active | Activity (MDA-MB-231 [25]): Active | Activity (Mus musculus [26]): Active | IC50 (MDA-MB-436 [27]): 3.5 µM | Activity (MDA-MB-436 [28]): Active | Activity [29]: Non-Toxic | Activity (MDA-MB-231 [30]): Dose-Dependent Effect | IC50 [31]: > 10 µM | Activity [32]: Active | Activity (MDA-MB-231 [33]): Active | IC50 [34]: 0.25 µM | inhibition [35]: Active | Activity (HDLEC): Active | IC50 [36]: 0.11 µM | Activity (MDA-MB-231 [37]): Active | inhibition [38]: Dose-Dependent Effect | inhibition [39]: Active | Activity [40]: 17% | Cmax [41]: 420 ng/mL
